Reference: patent US20150258059A1, “ANTIMICROBIAL AND RADIOPROTECTIVE COMPOUNDS” (BioDiem, Ltd, priority 2001, published 2015)
Like-named read-outs stand apart in the source and are kept apart here.

Legend:
Acinetobacter B-681 = assay: Sensitivity of strains: suppression of growth; type: cell-based; conditions: Compound (1) 1.0%; antibiotics disc method
Acinetobacter B-677 = assay: Sensitivity of strains: suppression of growth; type: cell-based; conditions: Compound (1) 1.0%; antibiotics disc method
[1] = tested on: Staphylococci epidermidis D-513; assay: Sensitivity of strains: suppression of growth; type: cell-based; conditions: Compound (1) 1.0%; antibiotics disc method
[2] = tested on: Neisseria meningitidis M-6231; assay: Sensitivity of strains: suppression of growth; type: cell-based; conditions: Compound (1) 1.0%; antibiotics disc method
[3] = tested on: Staphylococcus aureus M-209; assay: Sensitivity of strains: suppression of growth; type: cell-based; conditions: Compound (1) 1.0%; antibiotics disc method
[4] = tested on: Klebsiella pneumoniae M-A21; assay: Sensitivity of strains: suppression of growth; type: cell-based; conditions: Compound (1) 1.0%; antibiotics disc method
[5] = tested on: Staphylococcus epidermidis BK-30; assay: Sensitivity of strains: suppression of growth; type: cell-based; conditions: Compound (1) 1.0%; antibiotics disc method
Alkaligenes sp. B-689 = assay: Sensitivity of strains: suppression of growth; type: cell-based; conditions: Compound (1) 1.0%; antibiotics disc method
[6] = tested on: Citrobacter diversus B-678; assay: Sensitivity of strains: suppression of growth; type: cell-based; conditions: Compound (1) 1.0%; antibiotics disc method
[7] = tested on: Neisseria meningitidis M-A72; assay: Sensitivity of strains: suppression of growth; type: cell-based; conditions: Compound (1) 1.0%; antibiotics disc method
[8] = tested on: Pseudomonas aeruginosa B-601; assay: Sensitivity of strains: suppression of growth; type: cell-based; conditions: Compound (1) 1.0%; antibiotics disc method
[9] = tested on: β-hemolytic streptococcus B-624; assay: Sensitivity of strains: suppression of growth; type: cell-based; conditions: Compound (1) 1.0%; antibiotics disc method
[10] = tested on: Corynebacterium diphtheriae B-670; assay: Sensitivity of strains: suppression of growth; type: cell-based; conditions: Compound (1) 1.0%; antibiotics disc method
[11] = tested on: Staphylococcus aureus B-674; assay: Sensitivity of strains: suppression of growth; type: cell-based; conditions: Compound (1) 1.0%; antibiotics disc method
[12] = tested on: Yersinia pseudotuberculosis; type: cell-based; conditions: Compound (1) 1.0%; antibiotics disc method
[13] = tested on: Staphylococcus aureus M-12159; assay: Sensitivity of strains: suppression of growth; type: cell-based; conditions: Compound (1) 1.0%; antibiotics disc method
[14] = tested on: Enterobacter aerogenes B-687; assay: Sensitivity of strains: suppression of growth; type: cell-based; conditions: Compound (1) 1.0%; antibiotics disc method
[15] = tested on: Staphylococcus aureus B-685; assay: Sensitivity of strains: suppression of growth; type: cell-based; conditions: Compound (1) 1.0%; antibiotics disc method
Escherichia coli B-683 = assay: Sensitivity of strains: suppression of growth; type: cell-based; conditions: Compound (1) 1.0%; antibiotics disc method
[16] = tested on: Enterobacter aerogenes B-679; assay: Sensitivity of strains: suppression of growth; type: cell-based; conditions: Compound (1) 1.0%; antibiotics disc method
[17] = tested on: γ-hemolytic streptococcus B-672; assay: Sensitivity of strains: suppression of growth; type: cell-based; conditions: Compound (1) 1.0%; antibiotics disc method
Acinetobacter B-676 = assay: Sensitivity of strains: suppression of growth; type: cell-based; conditions: Compound (1) 1.0%; antibiotics disc method
[18] = tested on: Klebsiella pneumoniae M-248; assay: Sensitivity of strains: suppression of growth; type: cell-based; conditions: Compound (1) 1.0%; antibiotics disc method
[19] = tested on: Salmonella paratyphi M-16469; assay: Sensitivity of strains: suppression of growth; type: cell-based; conditions: Compound (1) 1.0%; antibiotics disc method
Alkaligenes sp. B-667 = assay: Sensitivity of strains: suppression of growth; type: cell-based; conditions: Compound (1) 1.0%; antibiotics disc method
Escherichia coli B-65 = assay: Sensitivity of strains: suppression of growth; type: cell-based; conditions: Compound (1) 1.0%; antibiotics disc method
Mycobact tub. H.37RV = assay: Anti-TB effect, serial double dilution in liquid medium; type: cell-based, M tuberculosis; conditions: 10-14 days incubation at 37° C.; read-out: Minimal Inhibitory Concentration
[20] = tested on: Conditional pathogenic enterobacteria gram-negative aerobic bacilli; type: cell-based; further: key: + sensitive strains; + moderately sensitive strains; − stable strains
Escherichia coli M-17 = assay: Sensitivity of strains: suppression of growth; type: cell-based; conditions: Compound (1) 1.0%; antibiotics disc method
S. aureus = assay: Antibacterial activity in the presence of blood, macrodilution; type: cell-based
Haemophilus influenzae = assay: NCCLS broth microdilution MIC/MBC; type: cell-based; conditions: Table 9, 35° C., 24 hours
[21] = tested on: Pseudomonas aeruginosa ATCC 27853; assay: NCCLS broth microdilution MIC/MBC; type: cell-based; conditions: for MIC: Pseudomonas aeruginosa, ATCC27853, read-out: MIC
[22] = tested on: Staphylococcus aureus ATCC 29213; assay: NCCLS broth microdilution MIC/MBC; type: cell-based; conditions: for MIC: Staphylococcus aureus, ATCC29213, read-out: MIC
[23] = tested on: Enterococcus faecalis ATCC 29212; assay: NCCLS broth microdilution MIC/MBC; type: cell-based; conditions: for MIC: Enterococcus faecalis, ATCC29212
[24] = tested on: Escherichia coli ATCC 25922; assay: NCCLS broth microdilution MIC/MBC; type: cell-based; conditions: for MIC: Escherichia coli, ATCC25922, read-out: MIC
Candida albicans = assay: NCCLS broth macro-dilution MIC/MFC (RPMI); type: cell-based; conditions: Table 10, 4 day, 30° C.
Trichophyton rubrum = assay: NCCLS broth macro-dilution MIC/MFC (RPMI); type: cell-based; conditions: Table 10, 7 day, 30° C.
Rhodotorula rubra = assay: NCCLS broth macro-dilution MIC/MFC (RPMI); type: cell-based; conditions: Table 10, 4 day, 30° C.
C. krusei RMIT 177 = assay: M38-P microdilution MIC/MFC; type: cell-based; conditions: 35° C.
Fusarium graminearum = assay: microbe, parasite or virus in culture; type: cell-based
C. tropicalis RMIT 181 = assay: M38-P microdilution MIC/MFC; type: cell-based; conditions: 35° C.
Cryptococcus neoformans = assay: M38-P microdilution MIC/MFC; type: cell-based; conditions: Cryptococcus neoformans, Table 16, 24 h, 35° C., read-out: MIC
C. glabrate RMIT 157 = assay: M38-P microdilution MIC/MFC; type: cell-based; conditions: Table 16, 24 h, 35° C.
[25] = tested on: C. guillermondii RMIT 176; assay: M38-P microdilution MIC/MFC; type: cell-based; conditions: Table 16, 24 h, 35° C.
C. parapsilosis RMIT 178 = assay: M38-P microdilution MIC/MFC; type: cell-based; conditions: 35° C.
Microsporum gypseum = assay: NCCLS broth macro-dilution MIC/MFC (RPMI); type: cell-based; conditions: Table 10, 7 day, 30° C.
Epidermophyton floccosum = assay: NCCLS broth macro-dilution MIC/MFC (RPMI); type: cell-based; conditions: Table 10, 7 day, 30° C.
[26] = in vivo; cited from earlier work

CO[C@H]1/C=C/O[C@@]2(C)Oc3c(C)c(O)c4c(O)c(c(/C=N/N5CCN(C)CC5)c(O)c4c3C2=O)NC(=O)/C(C)=C\C=C\[C@H](C)[C@H](O)[C@@H](C)[C@@H](O)[C@@H](C)[C@H](OC(C)=O)[C@@H]1C [Antibiotic 10, rifampicin]
0.01 to 0.02 µg/mL: MIC (Mycobact tub. H.37RV)
+: Suppression of Growth (+/−) (Acinetobacter B-681) | Suppression of Growth (+/−) (Acinetobacter B-677) | Suppression of Growth (+/−) [1] | Suppression of Growth (+/−) [3] | Suppression of Growth (+/−) [5] | Suppression of Growth (+/−) [9] | Suppression of Growth (+/−) [10] | Suppression of Growth (+/−) [13] | Suppression of Growth (+/−) [15] | Suppression of Growth (+/−) (Acinetobacter B-676) | Suppression of Growth (+/−) (Alkaligenes sp. B-667)
−: Suppression of Growth (+/−) [2] | Suppression of Growth (+/−) [4] | Suppression of Growth (+/−) (Alkaligenes sp. B-689) | Suppression of Growth (+/−) [6] | Suppression of Growth (+/−) [7] | Suppression of Growth (+/−) [8] | Suppression of Growth (+/−) [11] | Suppression of Growth (+/−) [12] | Suppression of Growth (+/−) [14] | Suppression of Growth (+/−) (Escherichia coli B-683) | Suppression of Growth (+/−) [16] | Suppression of Growth (+/−) [17] | Suppression of Growth (+/−) [18] | Suppression of Growth (+/−) [19] | Suppression of Growth (+/−) (Escherichia coli B-65) | Suppression of Growth (+/−) [20] | Suppression of Growth (+/−) (Escherichia coli M-17)

[H]/N=C(/N)N[C@H]1[C@H](O)[C@@H](O)[C@H](O[C@@H]2O[C@@H](C)[C@](O)(C=O)[C@H]2O[C@@H]2O[C@@H](CO)[C@H](O)[C@@H](O)[C@@H]2NC)[C@@H](N/C(N)=N\[H])[C@@H]1O [Antibiotic 12, streptomycin]
+: Suppression of Growth (+/−) [3] | Suppression of Growth (+/−) [13] | Suppression of Growth (+/−) [15]
0.5 µg/mL: MIC (Mycobact tub. H.37RV)
−: Suppression of Growth (+/−) (Acinetobacter B-681) | Suppression of Growth (+/−) (Acinetobacter B-677) | Suppression of Growth (+/−) [1] | Suppression of Growth (+/−) [2] | Suppression of Growth (+/−) [4] | Suppression of Growth (+/−) [5] | Suppression of Growth (+/−) [7] | Suppression of Growth (+/−) [9] | Suppression of Growth (+/−) [10] | Suppression of Growth (+/−) [12] | Suppression of Growth (+/−) [14] | Suppression of Growth (+/−) [16] | Suppression of Growth (+/−) [17] | Suppression of Growth (+/−) (Acinetobacter B-676) | Suppression of Growth (+/−) [18] | Suppression of Growth (+/−) (Alkaligenes sp. B-667) | Suppression of Growth (+/−) [20]

O=C(O)c1cn(C2CC2)c2cc(N3CCNCC3)c(F)cc2c1=O [Ciprofloxacin]
4 fold: decrease in activity (S. aureus; in the presence of 10% plasma)
0.02 µg/mL: MIC ([24]; Table 9, 35° C., 24 hours) | MIC ([24]; Table 17, 2 or 3 replicates) | MMC ([24]; Table 9, 35° C., 24 hours) | MMC ([24]; Table 17, 2 or 3 replicates)
0.25 µg/mL: MIC ([21]; Table 9, 35° C., 24 hours) | MIC ([21]; Table 17, 2 or 3 replicates) | MMC ([21]; Table 9, 35° C., 24 hours) | MMC ([21]; Table 17, 2 or 3 replicates) | MIC ([22]; Table 9, 35° C., 24 hours) | MIC ([22]; Table 17, 2 or 3 replicates) | MMC ([22]; Table 9, 35° C., 24 hours) | MMC ([22]; Table 17, 2 or 3 replicates)
0.006 µg/mL: MIC (Haemophilus influenzae; Haemophilus influenzae, read-out: MIC) | MMC (Haemophilus influenzae)
2 fold: decrease in activity (S. aureus; in the presence of whole blood)
0.5 µg/mL: MIC ([23]; Table 9, 35° C., 24 hours) | MIC ([23]; Table 17, 2 or 3 replicates) | MMC ([23]; Table 9, 35° C., 24 hours) | MMC ([23]; Table 17, 2 or 3 replicates)

Clc1ccc(COC(Cn2ccnc2)c2ccc(Cl)cc2Cl)c(Cl)c1 (stereo not shown) [Miconazole]
4 µg/mL: MIC (Candida albicans; Candida albicans, 96 h) | MIC (Cryptococcus neoformans) | MIC (Microsporum gypseum; Nannizzia gypsea, 168 h)
64 µg/mL: MMC (Trichophyton rubrum) | MMC (Microsporum gypseum)
0.25 µg/mL: MIC (C. glabrate RMIT 157; read-out: MIC) | MIC (Epidermophyton floccosum; Epidermophyton floccosum, 168 h) | MMC (Epidermophyton floccosum)
8 µg/mL: MMC (Candida albicans) | MIC (Rhodotorula rubra; Rhodotorula, 96 h)
2 µg/mL: MIC (C. krusei RMIT 177; Pichia kudriavzevii, RMIT177, Table 16, 24 h, read-out: MIC) | MMC (C. krusei RMIT 177; Table 16, 24 h) | MMC (C. tropicalis RMIT 181; Table 16, 24 h)
0.5 µg/mL: MMC (C. glabrate RMIT 157) | MIC (C. parapsilosis RMIT 178; Lodderomyces parapsilosis, RMIT178, Table 16, 24 h, read-out: MIC) | MMC (C. parapsilosis RMIT 178; Table 16, 24 h)
32 µg/mL: MMC (Rhodotorula rubra) | MIC (Fusarium graminearum; Fusarium graminearum, 168 h) | MMC (Fusarium graminearum; Table 10, 7 day, 30° C.)
1 µg/mL: MIC (Trichophyton rubrum; Trichophyton rubrum, 168 h) | MIC (C. tropicalis RMIT 181; Candida tropicalis, RMIT181, Table 16, 24 h, read-out: MIC) | MMC [25] | MIC ([25]; read-out: MIC)

NCCSSCCN [cystamine]
≤ 1.45: index of protection [26]
causes diarrhea: side effect [26]

NCCS [mercamine, β-mercaptoethylamine]
0.5 to 1 h: period of action [26]
15 to 30 min: duration of radiation protecting activity [26]
